Data on one compound can be found in patent US6969714B2, “Imidazolo-5-YL-2-anilino-pyrimidines as agents for the inhibition of the cell proliferation” (AstraZeneca AB, priority 2000, dated 2005).

pIC50: −log10 of the molar value.

The target in this test is T1, CDK2/Cyclin E (Homo sapiens, UniProt P24941).
T1 construct: The open reading frames of CDK2 and Cyclin E were isolated; made in house; host or cells: Sf21 (Spodoptera frugiperda) insect cells, baculovirus co-infection; the GST-Rb substrate was made in E. coli BL21 (DE3) pLysS
The test can be described thus: in vitro kinase assay, Scintillation Proximity Assay, incorporation of [γ-33-P]-ATP into GST-Rb. The format is biochemical. The conditions noted are these: GST-Rb substrate, 0.2 μM ATP, 60 minutes at room temperature, read-out: CDK2 inhibitory activity IC50. As to the method:
The compounds were tested in an in vitro kinase assay in 96 well format using Scintillation Proximity Assay (SPA—obtained from Amersham) for measuring incorporation of [γ-33-P]-Adenosine Triphosphate into a test substrate (GST-Retinoblastoma protein; GST-Rb). In each well was placed the compound to be tested (diluted in DMSO and water to correct concentrations) and in control wells either roscovitine as an inhibitor control or DMSO as a positive control. […]
The plates were sealed with Topseal-S plate sealers, left for two hours then spun at 2500 rpm, 1124×g., for 5 minutes. The plates were read on a Topcount for 30 seconds per well. […]
E. coli paste was resuspended in 10 ml/g of NETN buffer (50 mM Tris pH 7.5, 120 mM NaCl, 1 mM EDTA, 0.5% v/v NP-40, 1 mM PMSF, 1 ug/ml leupeptin, 1 ug/ml aprotinin and 1 ug/ml pepstatin) and sonicated for 2×45 seconds per 100 ml homogenate. […] The final product was analysed by Sodium Dodeca Sulfate (SDS) PAGE (Polyacrylamide gel) using 8-16% Tris-Glycine gels (Novex, San Diego, USA).
The open reading frames of CDK2 and Cyclin E were isolated by reverse transcriptase-PCR using HeLa cell and activated T cell mRNA as a template and cloned into the insect expression vector pVL1393 (obtained from Invitrogen 1995 catalogue number: V1392-20). […]
On the technique in general: SPA uses beads or plates that emit light when radiolabelled molecules are held near them.

As a reminder, the pIC50 is the IC50 on a negative log10 scale, so that one unit is a factor of ten. Consider `Cn1cncc1-c1ccnc(Nc2ccccc2)n1` [Example 14, 2-Anilino-4-(1-methylimidazol-5-yl)pyrimidine], for which the negative-log IC50 (pIC50) is 6.84.
